From patent publication US12258337B2, “Bicyclic CX3CR1 receptor agonists” (Board of Regents, The University of Texas System, priority 2019, dated 2025) come the findings set out here.

One experiment deals with T1, rCX3CR1 (Rattus norvegicus, UniProt P35411).
T1 construct: expressed in transfected cells; stably expresses a Ca2+ sensitive photo-protein
T1 sequence (P35411 1-354): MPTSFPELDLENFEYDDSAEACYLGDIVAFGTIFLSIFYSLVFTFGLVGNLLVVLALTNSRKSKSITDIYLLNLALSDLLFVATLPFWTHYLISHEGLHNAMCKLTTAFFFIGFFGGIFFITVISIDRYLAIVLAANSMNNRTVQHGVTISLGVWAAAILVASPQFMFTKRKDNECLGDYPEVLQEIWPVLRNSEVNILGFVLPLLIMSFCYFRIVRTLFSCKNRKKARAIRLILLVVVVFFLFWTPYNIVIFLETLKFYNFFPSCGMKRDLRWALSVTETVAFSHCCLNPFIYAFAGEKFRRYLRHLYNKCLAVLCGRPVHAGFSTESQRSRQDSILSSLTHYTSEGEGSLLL
The experiment can be described thus: Ga16 assay, CX3CR1 agonism, Ca2+ sensitive photo-protein readout (FLIPRTETRA). It counts as cell-based. The conditions noted are these: rat CX3CR1 cell line. The gist of the method: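 Cells expressing human, mouse or rat CX3CR1 with a stably expressed Ca2+-sensitive photoprotein were loaded with 10 μM coelenterazine in tyrode buffer pH 7.4 for 3 h at room temperature. Agonist-mode luminescence kinetics were recorded for 90 s after compound injection on FLIPRTETRA. Dose-response runs were done in quadruplicate, with fractalkine as the reference agonist.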

The target in another experiment is T2, hCX3CR1 (Homo sapiens, UniProt P49238).
T2 sequence (P49238 1-355): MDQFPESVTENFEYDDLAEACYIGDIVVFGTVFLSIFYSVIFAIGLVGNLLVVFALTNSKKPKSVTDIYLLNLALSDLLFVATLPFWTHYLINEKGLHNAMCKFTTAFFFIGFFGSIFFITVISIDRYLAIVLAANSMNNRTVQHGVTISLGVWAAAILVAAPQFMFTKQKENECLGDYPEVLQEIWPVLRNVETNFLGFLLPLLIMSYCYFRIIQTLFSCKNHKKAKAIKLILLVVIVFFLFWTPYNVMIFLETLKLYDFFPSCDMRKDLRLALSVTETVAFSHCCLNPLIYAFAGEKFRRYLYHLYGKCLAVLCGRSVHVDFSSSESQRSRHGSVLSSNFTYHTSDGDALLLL
The experiment can be described thus: ChAMPion assay (CHO ChAMPion/CX3CR1 K1.6, cAMP/CNG channel, photoprotein luminescence). The format is cell-based. The arrangement: expressed in transfected cells; stably expresses a Ca2+ sensitive photo-protein. The conditions noted are these: ChAMPion assay, CHO ChAMPion/CX3CR1 K1.6, Forskolin 3 μM; read-out: hCX3CR1 agonism EC50. On the procedure: Buffers and reagents. PBS (D-PBS without calcium and magnesium; EuroClone); Trypsin (Trypsin 0.05%, EDTA 0.02% in PBS; EuroClone); DMSO (Sigma); Tyrode buffer Ca^2+ free: in-house solution (130 mM NaCl, 5 mM KCl, 1 mM MgCl^2, 5 mM NaHCO3, 20 mM HEPES (pH 7.4); sterile filtered and autoclaved); Tyrode buffer 10 mM Ca^2+: in-house solution (130 mM NaCl, 5 mM KCl, 10 mM CaCl2), 1 mM MgCl2, 5 mM NaHCO3, 20 mM HEPES, in water at pH 7.4, sterile filtered); Coelenterazine, native (Biosynth); stock 10 mM; Agonist: Recombinant Human Fractalkine (CX3CL1) (PeproTech); stock: 10 μM in standard Tyrode buffer/BSA 01%; stored at −20° C.
Cell line. The final clone for the hCX3CR1 assay was CHO ChAMPion/CX3CR1 K1.6. ChAMPion technology is based on the co-expression of a Ca^2+ sensitive photoprotein and of a cyclic nucleotide-gated (CNG) channel acting as a cAMP biosensor in a CHO-K1 cell line. CNG channels are non-selective ligand gated cation channels that can be opened by the direct interaction with either cAMP or cGMP, at the intracellular C-terminus site of the channel. Channel opening allows the flux of extracellular calcium into the cell cytoplasm and its transient elevation can be recorded by means of several different calcium indicators. In the chAMPion system, the CNG channel has been modified to display sensitivity to cAMP levels in the physiological range. In addition the calcium influx through the opened channel is immediately detected by the recording of the photoprotein-emitted flash type luminescence signal.
The chAMPion cell line system can monitor the activation of transfected Gαi-coupled receptors, which elicit changes in 3,‘5’-adenosine cyclic monophosphate (cAMP) levels, which in turn is responsible for CNG opening and consequent Ca^2+ influx.
Assay protocol. Experiments were performed in 384 MTP format. Cells were seeded at 10,000 cells/well in 25 μL/well complete growth medium without selection antibiotics in 384-well plates. Twenty-four hours later, cells were assayed for the response to various compounds using the Ca^2+ sensitive photo-protein stably expressed in the cells as readout.
The experiment was performed in a 384-well format according to the following procedure: • 24h after seeding, pre-incubate the cells at room temperature for 1 hour. • Then remove the culture medium. • Load cells with 20 μL/well of Ca^2+ free tyrode buffer+ceolenterazine 5 μM. • Incubate cell plates for 4 hours at RT. • 10 μl/well of 3× concentrated compounds in Ca^2+ free tyrode buffer+Forskolin 9 μM (final Forskolin concentration=3 μM) are applied to the cells (at 10 μl/s). Ten minutes later a second injection is performed: 10 μl/well of Ca^2+ free tyrode buffer+BSA 0.04% (final BSA concentration=0.01%). Twenty minutes later a third injection is performed: 20 μl/well of 10 mM Ca^2+ tyrode buffer (final Ca^2+ concentration was 3.3 mM) and luminescence is recorded for 90 seconds.
Data from FLIPRTETRA measurements are analyzed with the Genedata Screener© software.

As a reminder, the EC50 is the concentration needed to bring the measured effect to its halfway point.

Turning to `O=C(NCC1(CN2CCC(O)C2)CCCC1)c1cc2c(s1)CCCCCC2` (racemic) [Example 25, N-[[1-[(3-hydroxypyrrolidin-1-yl)methyl]cyclopentyl]methyl]-4,5,6,7,8,9-hexahydrocycloocta[b]thiophene-2-carboxamide], the EC50 at rCX3CR1 was 23.1 µM; at hCX3CR1 it was 0.7 µM.

As for `CC(C)(CNC(=O)c1cc2c(s1)CCCCCC2)CN1CCCC1` [Example 1, N-(2,2-dimethyl-3-pyrrolidin-1-ylpropyl)-4,5,6,7,8,9-hexahydrocycloocta[b]thiophene-2-carboxamide], the EC50 amounted to 13.9 µM on rCX3CR1 and 2.1 µM on hCX3CR1.

`CN(C)CC1(CNC(=O)c2cc3c(s2)CCCCCC3)CCCC1` [Example 2, N-[[1-[(dimethylamino)methyl]cyclopentyl]methyl]-4,5,6,7,8,9-hexahydrocycloocta[b]thiophene-2-carboxamide]: the figures for the EC50 at rCX3CR1 and on hCX3CR1 were 8.5 µM and 1.3 µM, respectively.

As for `O=C(NCC1(CN2CCCC2)CCCC1)c1cc2c(s1)CCCCCC2` [Example 5, N-[[1-(pyrrolidin-1-ylmethyl)cyclopentyl]methyl]-4,5,6,7,8,9-hexahydrocycloocta[b]thiophene-2-carboxamide], the EC50 was determined as 10.2 µM on rCX3CR1 and 1.8 µM at hCX3CR1.

`CC(C)(CNC(=O)c1cc2c(s1)CCCCCC2)CN1CCCCC1` [Example 13, N-(2,2-dimethyl-3-piperidin-1-ylpropyl)-4,5,6,7,8,9-hexahydrocycloocta[b]thiophene-2-carboxamide]: the EC50 was determined as 16.9 µM at rCX3CR1 and 2.2 µM at hCX3CR1.

Regarding `O=C(NCC1(CN2CCCCC2)CCCC1)c1cc2c(s1)CCCCCC2` [Example 15, N-[[1-(piperidin-1-ylmethyl)cyclopentyl]methyl]-4,5,6,7,8,9-hexahydrocycloocta[b]thiophene-2-carboxamide], the 50% effective concentration (EC50) at rCX3CR1 came out at 20 µM; on hCX3CR1, 2.7 µM.

Consider `O=C(NCC1(CN2CCCC2)CCC1)c1cc2c(s1)CCCCCC2` [Example 21, N-[[1-(pyrrolidin-1-ylmethyl)cyclobutyl]methyl]-4,5,6,7,8,9-hexahydrocycloocta[b]thiophene-2-carboxamide], for which the figures for the EC50 on rCX3CR1 and at hCX3CR1 were 5.8 µM and 4.4 µM, respectively.

For `CN(C)CC1(CNC(=O)c2cc3c(s2)CCCCCC3)CCC1` [Example 23, N-[[1-[(dimethylamino)methyl]cyclobutyl]methyl]-4,5,6,7,8,9-hexahydrocycloocta[b]thiophene-2-carboxamide], the EC50 at rCX3CR1 is 9.5 µM; on hCX3CR1, 1.4 µM.

Consider `O=C(NCC1(CN2CCCC(O)C2)CCCC1)c1cc2c(s1)CCCCCC2` (stereo not shown) [Example 27, N-[[1-[(3-hydroxypiperidin-1-yl)methyl]cyclopentyl]methyl]-4,5,6,7,8,9-hexahydrocycloocta[b]thiophene-2-carboxamide], for which the EC50 at rCX3CR1 amounted to 10.8 µM; on hCX3CR1 it was 13.1 µM.

With `O=C(NCC1(CN2CCC(O)CC2)CCCC1)c1cc2c(s1)CCCCCC2` [Example 28, N-[[1-[(4-hydroxypiperidin-1-yl)methyl]cyclopentyl]methyl]-4,5,6,7,8,9-hexahydrocycloocta[b]thiophene-2-carboxamide], the EC50 is 9.4 µM on rCX3CR1 and 0.79 µM on hCX3CR1.

For the compound `CN(CCO)CC1(CNC(=O)c2cc3c(s2)CCCCCC3)CCC1` [Example 30, N-[[1-[[2-hydroxyethyl(methyl)amino]methyl]cyclobutyl]methyl]-4,5,6,7,8,9-hexahydrocycloocta[b]thiophene-2-carboxamide], the EC50 on rCX3CR1 was found to be 13.4 µM; on hCX3CR1, 0.6 µM.

In the case of `CN(C)CC1(CNC(=O)c2cc3c(s2)CCCCCC3)CC(O)C1` (stereo not shown) [Example 31, N-[[1-[(dimethylamino)methyl]-3-hydroxycyclobutyl]methyl]-4,5,6,7,8,9-hexahydrocycloocta[b]thiophene-2-carboxamide], the EC50 came out at 14.8 µM on rCX3CR1 and 0.89 µM on hCX3CR1.

On to `O=C(NCC1(CN2CCCC2)CC(O)C1)c1cc2c(s1)CCCCCC2` (stereo not shown) [Example 32, N-[[3-hydroxy-1-(pyrrolidin-1-ylmethyl)cyclobutyl]methyl]-4,5,6,7,8,9-hexahydrocycloocta[b]thiophene-2-carboxamide], for which the concentration giving a half-maximal response (EC50) was found to be 11.4 µM at rCX3CR1 and 0.64 µM at hCX3CR1.

Turning to `CN(C)CC(C)(C)CNC(=O)c1cc2c(s1)CCCCCC2` [Example 70, N-[3-(dimethylamino)-2,2-dimethylpropyl]-4,5,6,7,8,9-hexahydrocycloocta[b]thiophene-2-carboxamide], the EC50 on rCX3CR1 amounted to 26.1 µM; at hCX3CR1, 3.1 µM.
